Data on 2 molecules can be found in patent US6924282B2, “Sodium salt of an HIV integrase inhibitor” (Merck & Co., Inc., priority 2001, dated 2005).

Series [1] has as its target recombinant integrase (HIV integrase) (Human immunodeficiency virus type 1 group M subtype B, UniProt P04585). Conditions: strand transfer assay of Example 193 of WO 02/30930. The text has this:
The strand transfer assay is described in Example 193 of WO 02/30930.

Series [2] has as its system acute HIV infection of T-lymphoid cells. The series is described as follows: assay for the inhibition of acute HIV infection of T-lymphoid cells. It counts as cell-based. Conditions: in accordance with Vacca et al., PNAS 1994, 91: 4096-4100. The text has this:
Compound A is an inhibitor of HIV integrase.

Series [3] in a line: oral bioavailability and pharmacokinetics in dogs. The format is in vivo. The settings on record: relative to amorphous and crystalline Compound A.
Series [4] is described as follows: oral bioavailability and pharmacokinetics in rats. It counts as in vivo. The settings on record: relative to amorphous and crystalline Compound A.
Series [5] in a line: oral absorption and pharmacokinetics in animal models. It counts as in vivo. The settings on record: compared to crystalline Compound A per se. The text has this: The present invention is directed to a pharmaceutically acceptable alkali metal salt of an HIV integrase inhibitor.

With `O=C(NCc1ccc(F)cc1)c1nc(N2CCCCS2(=O)=O)c2cccnc2c1O` [Compound A, 5-(1,1-dioxido-1,2-thiazinan-2-yl)-N-(4-fluorobenzyl)-8-hydroxy-1,6-naphthyridine-7-carboxamide], in series [1], the “inhibition of integrase strand transfer” value is listed as “potent inhibitor”. In addition, in series [2], the “inhibition of acute HIV infection of T-lymphoid cells” value was “active”.
For the molecule `O=C(NCc1ccc(F)cc1)c1nc(N2CCCCS2(=O)=O)c2cccnc2c1[O-].[Na+]` [crystalline sodium salt of Compound A, Sodium salt of 5-(1,1-Dioxido-1,2-thiazinan-2-yl)-N-(4-fluorobenzyl)-8-hydroxy-1,6-naphthyridine-7-carboxamide], in series [3], the oral bioavailability result is reported as “superior oral bioavailability”; the “pharmacokinetics (e.g., Cmax and AUC)” value was “improved pharmacokinetics”. Moreover, in series [4], the oral bioavailability entry is listed as “superior oral bioavailability”; the “pharmacokinetics (e.g., Cmax and AUC)” value was “improved pharmacokinetics”. Besides, in series [5], the oral absorption result was “superior oral absorption” and the pharmacokinetics result is “improved pharmacokinetics”.
